EP2951180B1, “2,6,7,8 SUBSTITUTED PURINES AS HDM2 INHIBITORS” (Merck Sharp & Dohme Corp., priority 2013, dated 2014)

target: T1, HDM2 (Homo sapiens, UniProt Q00987); experiment: FRET assay (HDM2 inhibition; method not described in this part); assay type: binding; settings: Table 1
T1 construct: Thioredoxin (N); made in house; host or cells: E. coli strain BL21(DE3)Rosetta
T1 sequence (Q00987 17-125): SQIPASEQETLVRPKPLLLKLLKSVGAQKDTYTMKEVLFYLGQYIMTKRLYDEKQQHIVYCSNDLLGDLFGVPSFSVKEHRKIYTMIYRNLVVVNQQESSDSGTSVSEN

Row | Structure (SMILES) | IC50 [nM]
1 | C[C@@H](Nc1nc(C(=O)O)nc2nc(-c3cc(Cl)ccn3)n(Cc3ccc(C(F)(F)F)cc3)c12)C1CCC1 [Example 1.44, 8-(4-chloropyridin-2-yl)-6-{[(1R)-1-cyclobutylethyl]amino}-7-[4-(trifluoromethyl)benzyl] - 7H-purine-2-carboxylic acid] | 16.5
2 | C[C@@H](Nc1nc(C(=O)O)nc2nc(-c3cc(OC4CCC4)ccn3)n(Cc3ccc(C(F)(F)F)cc3)c12)C1CCC1 [Example 1.45, 6-{[(1R)-1-cyclobutylethyl]amino}-8-[4-(cyclobutyloxy)pyridin-2-yl]-7-[4-(trifluoromethyl)benzyl]-7H-purine-2-carboxylic acid] | 50.8
3 | C[C@@H](Nc1nc(C(=O)O)nc2nc(-c3cc(C(F)F)ccn3)n(Cc3ccc(C(F)(F)F)cc3)c12)C1CCC1 [Example 1.46, 6-{[(1R)-1-cyclobutylethyl]amino}-8-[4-(difluoromethyl)pyridin-2-yl]-7-[4-(trifluoromethyl)benzyl]-7H-purine-2-carboxylic acid] | 12.3
4 | C[C@@H](Nc1nc(C(=O)O)nc2nc(-c3cc(N(C)C)ccn3)n(Cc3ccc(C(F)(F)F)cc3)c12)C1CCC1 [Example 1.47, 6-{[(1R)-1-cyclobutylethyl]amino}-8-[4-(dimethylamino)pyridin-2-yl]-7-[4-(trifluoromethyl)benzyl]-7H-purine-2-carboxylic acid] | 16.4
5 | Cc1ccn(-c2ccnc(-c3nc4nc(C(=O)O)nc(N[C@H](C)C5CCC5)c4n3Cc3ccc(C(F)(F)F)cc3)c2)n1 [Example 1.48, 6-{[(1R)-1-cyclobutylethyl]amino}-8-[4-(3-methyl-1H-pyrazol-1-yl)pyridin-2-yl]-7-[4-(trifluoromethyl)benzyl]-7H-purine-2-carboxylic acid] | 2260
6 | CC(C)c1ccnc(-c2nc3nc(C(=O)O)nc(N[C@H](C)C4CCC4)c3n2Cc2ccc(C(F)(F)F)c(F)c2)c1 [Example 1.49, 6-{[(1R)-1-cyclobutylethyl]amino}-7-[3-fluoro-4-(trifluoromethyl)benzyl] - 8-[4-(1-methylethyl)pyridin-2-yl]-7H-purine-2-carboxylic acid] | 3.52
7 | CC(C)c1ccnc(-c2nc3nc(C(=O)O)nc(N[C@@H](C)C4CCC4)c3n2Cc2ccc(C(F)(F)F)cc2)c1 [Example 1.50] | 128
8 | C[C@@H](Nc1nc(C(=O)O)nc2nc(-c3cc(C4CC4)ccn3)n(Cc3ccc(C(F)(F)F)cc3)c12)C1CCC1 [Example 1.51, 6-{[(1R)-1-cyclobutylethyl]amino}-8-(4-cyclopropylpyridin-2-yl)-7-[4-(trifluoromethyl)benzyl]-7H-purine-2-carboxylic acid] | 8.39
9 | CC(C)c1ccc(OC(F)(F)F)c(-c2nc3nc(C(=O)O)nc(N[C@H](C)C4CCC4)c3n2Cc2ccc(C(F)(F)F)cc2)c1 [Example 1.52, 6-{[(1R)-1-cyclobutylethyl]amino}-8-[5-(1-methylethyl)-2-(trifluoromethoxy)phenyl]-7-[4-(trifluoromethyl)benzyl] - 7H-purine-2-carboxylic acid] | 6.25
10 | C[C@@H](Nc1nc(C(=O)O)nc2nc(-c3cc(C(C)(C)C)ccn3)n(Cc3ccc(C(F)(F)F)cc3)c12)C1CCC1 [Example 1.53, 8-(4-tert-butylpyridin-2-yl)-6-{[(1R)-1-cyclobutylethyl]amino}-7-[4-(trifluoromethyl)benzyl]-7H-purine-2-carboxylic acid] | 4.36
11 | C[C@@H](Nc1nc(C(=O)O)nc2nc(-c3cc(C4CCC4)ccn3)n(Cc3ccc(C(F)(F)F)cc3)c12)C1CCC1 [Example 1.54] | 5.61
12 | C[C@@H](Nc1nc(C(=O)O)nc2nc(-c3cc(C4CCCC4)ccn3)n(Cc3ccc(C(F)(F)F)cc3)c12)C1CCC1 [Example 1.55, 6-{[(1R)-1-cyclobutylethyl]amino}-8-(4-cyclopentylpyridin-2-yl)-7-[4-(trifluoromethyl)benzyl]-7H-purine-2-carboxylic acid] | 4.77
13 | C[C@@H](Nc1nc(C(=O)O)nc2nc(-c3cc(C4CCCCC4)ccn3)n(Cc3ccc(C(F)(F)F)cc3)c12)C1CCC1 [Example 1.56, 6-{[(1R)-1-cyclobutylethyl]amino}-8-(4-cyclohexylpyridin-2-yl)-7-[4-(trifluoromethyl)benzyl]-7H-purine-2-carboxylic acid] | 6.99
14 | C[C@@H](Nc1nc(C(=O)O)nc2nc(-c3cc(-c4cccs4)ccn3)n(Cc3ccc(C(F)(F)F)cc3)c12)C1CCC1 [Example 1.57, 6-{[(1R)-1-cyclobutylethyl]amino}-8-(4-thiophen-2-ylpyridin-2-yl)-7-[4-(trifluoromethyl)benzyl]-7H-purine-2-carboxylic acid] | 5.95
15 | C[C@@H](Nc1nc(C(=O)O)nc2nc(-c3cc(OC4CCCCC4)ccn3)n(Cc3ccc(C(F)(F)F)cc3)c12)C1CCC1 [Example 1.58, 6-{[(1R)-1-cyclobutylethyl]amino}-8-[4-(cyclohexyloxy)pyridin-2-yl]-7-[4-(trifluoromethyl)benzyl]-7H-purine-2-carboxylic acid] | 16.9
16 | C[C@@H](Nc1nc(C(=O)O)nc2nc(-c3cc(C(F)(F)F)ccn3)n(Cc3ccc(C(F)(F)F)cc3)c12)C1CCC1 [Example 1.60, 6-{[(1R)-1-cyclobutylethyl]amino}-7-[4-(trifluoromethyl)benzyl] - 8-[4-(trifluoromethyl)pyridin-2-yl]-7H-purine-2-carboxylic acid] | 15.2
17 | C[C@@H](Nc1nc(C(=O)O)nc2nc(-c3cccc4c3CNC4)n(Cc3ccc(C(F)(F)F)cc3)c12)C1CCC1 [Example 1.61, 6-{[(1R)-1-cyclobutylethyl]amino}-8-(2,3-dihydro-1H-isoindol-4-yl)-7-[4-(trifluoromethyl)benzyl]-7H-purine-2-carboxylic acid] | 51.4
18 | C[C@@H](Nc1nc(C(=O)O)nc2nc(-c3cc4ccccc4cn3)n(Cc3ccc(C(F)(F)F)cc3)c12)C1CCC1 [Example 1.62, 6-{[(1R)-1-cyclobutylethyl]amino}-8-isoquinolin-3-yl-7-[4-(trifluoromethyl)benzyl] - 7H-purine-2-carboxylic acid] | 45.8
19 | C[C@@H](Nc1nc(C(=O)O)nc2nc(-c3cccc(-c4ccccc4)n3)n(Cc3ccc(C(F)(F)F)cc3)c12)C1CCC1 [Example 1.63, 6-{[(1R)-1-cyclobutylethyl]amino}-8-(6-phenylpyridin-2-yl)-7-[4-(trifluoromethyl)benzyl] - 7H-purine-2-carboxylic acid] | 324
20 | C[C@@H](Nc1nc(C(=O)O)nc2nc(-c3cc(C(F)F)cc(C(F)F)n3)n(Cc3ccc(C(F)(F)F)cc3)c12)C1CCC1 [Example 1.64, 8-[4,6-bis(difluoromethyl)pyridin-2-yl]-6-{[(1R)-1-cyclobutylethyl]amino}-7-[4-(trifluoromethyl)benzyl] - 7H-purine-2-carboxylic acid] | 22.9
21 | C[C@@H](Nc1nc(C(=O)O)nc2nc(-c3ccc(C4OCCO4)cn3)n(Cc3ccc(C(F)(F)F)cc3)c12)C1CCC1 [Example 1.65, 6-{[(1R)-1-cyclobutylethyl]amino}-8-[5-(1,3-dioxolan-2-yl)pyridin-2-yl]-7-[4-(trifluoromethyl)benzyl]-7H-purine-2-carboxylic acid] | 62.2
22 | C[C@@H](Nc1nc(C(=O)O)nc2nc(-c3ccc(OC(F)F)cn3)n(Cc3ccc(C(F)(F)F)cc3)c12)C1CCC1 [Example 1.66, 6-{[(1R)-1-cyclobutylethyl]amino}-8-[5-(difluoromethoxy)pyridin-2-yl]-7-[4-(trifluoromethyl)benzyl]-7H-purine-2-carboxylic acid] | 58.4
23 | COc1ccnc(-c2nc3nc(C(=O)O)nc(N[C@H](C)C4CCC4)c3n2Cc2ccc(C(F)(F)F)cc2)c1 [Example 1.67, 6-{[(1R)-1-cyclobutylethyl]amino}-8-(4-methoxypyridin-2-yl)-7-[4-(trifluoromethyl)benzyl]-7H-purine-2-carboxylic acid] | 14.2
24 | CCCc1ccnc(-c2nc3nc(C(=O)O)nc(N[C@H](C)C4CCC4)c3n2Cc2ccc(C(F)(F)F)cc2)c1 [Example 1.68, 6-{[(1R)-1-cyclobutylethyl]amino}-8-(4-propylpyridin-2-yl)-7-[4-(trifluoromethyl)benzyl]-7H-purine-2-carboxylic acid] | 5.62
25 | CCc1ccnc(-c2nc3nc(C(=O)O)nc(N[C@H](C)C4CCC4)c3n2Cc2ccc(C(F)(F)F)cc2)c1 [Example 1.69, 6-{[(1R)-1-cyclobutylethyl]amino}-8-(4-ethylpyridin-2-yl)-7-[4-(trifluoromethyl)benzyl]-7H-purine-2-carboxylic acid] | 42.7
26 | CC(C)c1cccc(-c2nc3nc(C(=O)O)nc(N[C@H](C)C4CCC4)c3n2Cc2ccc(C(F)(F)F)cc2)n1 [Example 1.70, 6-{[(1R)-1-cyclobutylethyl]amino}-8-[6-(1-methylethyl)pyridin-2-yl]-7-[4-(trifluoromethyl)benzyl]-7H-purine-2-carboxylic acid] | 46.9
27 | CC(C)c1ccnc(-c2nc3nc(C(=O)O)nc(N[C@H](C)C4CCC4)c3n2Cc2ccc(OC(F)(F)F)c(F)c2)c1 [Example 1.71, 6-{[(1R)-1-cyclobutylethyl]amino}-7-[3-fluoro-4-(trifluoromethoxy)benzyl]-8-[4-(1-methylethyl)pyridin-2-yl]-7H-purine-2-carboxylic acid] | 9.51
28 | CC(C)c1ccnc(-c2nc3nc(C(=O)O)nc(N[C@H](C)C4CCC4)c3n2Cc2ccc(OC(F)(F)F)cc2)c1 [Example 1.72, 6-{[(1R)-1-cyclobutylethyl]amino}-8-[4-(1-methylethyl)pyridin-2-yl]-7-[4-(trifluoromethoxy)benzyl]-7H-purine-2-carboxylic acid] | 12.3
29 | C[C@@H](Nc1nc(C(=O)O)nc2nc(-c3nccc4ccccc34)n(Cc3ccc(C(F)(F)F)cc3)c12)C1CCC1 [Example 1.73, 6-{[(1R)-1-cyclobutylethyl]amino}-8-isoquinolin-1-yl-7-[4-(trifluoromethyl)benzyl]-7H-purine-2-carboxylic acid] | 27.3
30 | COc1ccnc(-c2nc3nc(C(=O)O)nc(N[C@H](C)C4CCC4)c3n2Cc2ccc(C(F)(F)F)cc2)c1C [Example 1.74, 6-{[(1R)-1-cyclobutylethyl]amino}-8-(4-methoxy-3-methylpyridin-2-yl)-7-[4-(trifluoromethyl)benzyl]-7H-purine-2-carboxylic acid] | 72.5
